Laboratory results reported in patent publication US20260159519A1, “IMIDAZOPYRIDAZINE SUBSTITUTED BENZENE RING DERIVATIVE, PREPARATION METHOD, PHARMACEUTICAL COMPOSITION AND USE” (SHANGHAI SIMR BIOTECHNOLOGY CO., LTD., priority 2022, published 2026).

System: Chinese hamster ovary cells (CHO-WBL cells)
Experiment: In vitro micronucleus assay
Assay type: cell-based
Conditions: 3-hour treatment with S9, 3-hour and 24-hour treatment without S9; overall judgment
Source text: The experimental design is based on the experimental purpose and follows the following experimental design guidelines: • (1) OECD Guidelines for the Testing of Chemicals 487, In Vitro Mammalian Cell Micronucleus Test, revised in 2016; • (2) ICH S2 (R1): Guideline on Genotoxicity Testing and Data Interpretation for Pharmaceuticals Intended for Human Use, validated in November 2011.
Experimental system and selection rationale: Chinese hamster ovary cells (CHO-WBL cells) were used as an experimental system in this experiment. The cell line has a karyotype containing 21 chromosomes and a growth cycle of 12 to 13 hours. CHO-WBL cells were originally derived from Dr. S. Wolff at the University of California in San Francisco, USA, then cloned in the laboratory of Dr. A. Bloom at Columbia University in New York, and cloned again by Dr. S. Galloway at Litton Bionetics Laboratory in Maryland. The cell stock solution was stored in liquid nitrogen. The karyotype of each batch of cell stock solution was identified, and tests confirmed that it was free from mycoplasma contamination. The number of passages after cell cloning will not exceed 15. Chinese hamster ovary cells were chosen because the cell line is recommended for use in OECD Guidelines for the Testing of Chemicals 487 and has been proven to be sensitive to a variety of clastogens/aneugens (Marilyn J. et al., 2006).
Medium and cell growth conditions: Chinese hamster ovary cells were cultured in McCoy's 5A complete medium (McCoy's 5A complete medium supplemented with 10 vt % fetal bovine serum, 2 mM GlutaMAX™ medium, 100 units/mL penicillin, and 100 μg/mL streptomycin), and grown in a standard environment (a high-humidity incubator with a temperature of 37° C. and a CO2 concentration of 5%). The day before administration, CHO-WBL cells in exponential growth phase were inoculated onto an eight-well cell culture slide at a density of 8×10^3 cells/400 μL McCoy's 5A complete medium/well.
Metabolic activation system: The in vitro metabolic activation system (Maron and Ames, 1983) contains a rat liver microsomal homogenate induced by β-naphthoflavone and phenobarbital (referred to as S9) and an NADPH-generating system (i.e., NADP disodium and isocitric acid trisodium). S9 was purchased from CHI Scientific, Inc. and stored in a −75° C. refrigerator prior to use. Preparation method for S9 homogenate: Male Sprague Dawley rats were intraperitoneally injected with a single dose of p-naphthoflavone and phenobarbital, followed by material preparation.
Preparation of S9 metabolic activation system: NADP disodium salt and isocitric acid trisodium salt were first dissolved in serum-free medium to prepare a core solution, which was then filtered through a 0.22 µm filter to sterilize. Immediately before use, the S9 homogenate was thawed, and the components of the S9 metabolic activation system were mixed in the proportions shown in Table 2 below.
Dose exploration experiment: In the dose exploration experiment, 8 administration concentrations were established in each administration treatment series. For each concentration of the test substance, 1 well of cells was set up. According to the ICH S2 (R1) guidelines, when not limited by the solubility of the test substance in the solvent/medium or the cytotoxicity of the test substance, the recommended maximum concentration is 1 mM or 0.5 mg/mL, whichever is lower. However, when limited by solubility, the test maximum concentration is the minimum concentration at which a small amount of precipitate is visible in the medium under the microscope. To ensure that the upper limit of solubility in the medium can be reached, up to 4 concentrations with visible precipitate can be tested.

Row | SMILES | Results of in vitro micronucleus assay
1 | CCn1cnc2c(-c3ccc(F)c(-c4cc5oc(=O)n(C)c5cc4OC)c3)cnnc21 [Example 87, 6-(5-(7-Ethyl-7H-imidazo[4,5-c]pyridazin-4-yl)-2-fluorophenyl)-5-methoxy-3-methylbenzo[d]oxazol-2(3H)-one] | Negative
2 | COc1cc2c(cc1-c1cc(-c3cnnc4c3ncn4C(C)C)ccc1F)OCC(=O)N2C [Example 36, 7-(2-Fluoro-5-(7-isopropyl-7H-imidazo[4,5-c]pyridazin-4-yl)phenyl)-6-methoxy-4-methyl-2H-benzo[b][1,4]oxazin-3(4H)-one] | Negative
3 | CCn1cnc2c(-c3ccc(F)c(-c4cc5c(cc4OC)N(C)C(=O)C5)c3)cnnc21 [Example 161, 5-(5-(7-Ethyl-7H-imidazo[4,5-c]pyridazin-4-yl)-2-fluorophenyl)-6-methoxy-1-methyldihydro-2-one] | Negative
4 | CCn1cnc2c(-c3ccc(F)c(-c4cc5c(cc4OC)N(C)C(=O)CO5)c3)cnnc21 [Example 42, 7-(5-(7-Ethyl-7H-imidazo[4,5-c]pyridazin-4-yl)-2-fluorophenyl)-6-methoxy-4-methyl-2H-benzo[b][1,4]oxazin-3(4H)-one] | Negative
5 | CCN1C(=O)COc2cc(-c3cc(-c4cnnc5c4ncn5CC)ccc3F)c(OC)cc21 [Example 31, 4-Ethyl-7-(5-(7-ethyl-7H-imidazo[4,5-c]pyridazin-4-yl)-2-fluorophenyl)-6-methoxy-2H-benzo[b][1,4]oxazin-3(4H)-one] | Negative
